This passage reports IC50 results from patent US10752624B2, “Kinase inhibitors” (Origenis GmbH, priority 2012, dated 2020).

Where only a bound is given, the exact number is not on record here.

The target in this test is LRRK2 (Homo sapiens, UniProt Q5S007). Briefly: LRRK2-LRRK2 G2019S-Assay (LanthaScreen Eu Kinase Binding Assay). The conditions noted are these: 5 nM LRRK2, 10 nM tracer 236, 2 nM EU-Anti-GST antibody, 1 h at RT; read-out: LRRK2 Activities: IC50. The procedure: In the assay LanthaScreen™ Eu Kinase Binding Assay by Invitrogen Corporation (Carlsbad) the effect of invention of a compound on the phosphorylation is determined by measurement of fluorescence intensity emission ratio based on the binding and displacement of a proprietary, Alexa Fluor® 647-labeled, ATP-competitive kinase inhibitor scaffold (kinase tracer) to the kinase of interest. Binding of the tracer to the kinase is detected using a europium-labeled anti-tag antibody, which binds to the kinase of interest. Simultaneous binding of both the tracer and antibody to the kinase results in a high degree of FRET (fluorescence resonance energy transfer) from the europium (Eu) donor fluorophore to the Alexa Fluor® 647 acceptor fluorophore on the kinase tracer. Binding of an inhibitor to the kinase competes for binding with the tracer, resulting in a loss of FRET. The fluorescence intensity ratio is directly proportional to the amount of peptide phosphorylation.
Sequence of LRRK2 (Q5S007 970-2527 limits assumed): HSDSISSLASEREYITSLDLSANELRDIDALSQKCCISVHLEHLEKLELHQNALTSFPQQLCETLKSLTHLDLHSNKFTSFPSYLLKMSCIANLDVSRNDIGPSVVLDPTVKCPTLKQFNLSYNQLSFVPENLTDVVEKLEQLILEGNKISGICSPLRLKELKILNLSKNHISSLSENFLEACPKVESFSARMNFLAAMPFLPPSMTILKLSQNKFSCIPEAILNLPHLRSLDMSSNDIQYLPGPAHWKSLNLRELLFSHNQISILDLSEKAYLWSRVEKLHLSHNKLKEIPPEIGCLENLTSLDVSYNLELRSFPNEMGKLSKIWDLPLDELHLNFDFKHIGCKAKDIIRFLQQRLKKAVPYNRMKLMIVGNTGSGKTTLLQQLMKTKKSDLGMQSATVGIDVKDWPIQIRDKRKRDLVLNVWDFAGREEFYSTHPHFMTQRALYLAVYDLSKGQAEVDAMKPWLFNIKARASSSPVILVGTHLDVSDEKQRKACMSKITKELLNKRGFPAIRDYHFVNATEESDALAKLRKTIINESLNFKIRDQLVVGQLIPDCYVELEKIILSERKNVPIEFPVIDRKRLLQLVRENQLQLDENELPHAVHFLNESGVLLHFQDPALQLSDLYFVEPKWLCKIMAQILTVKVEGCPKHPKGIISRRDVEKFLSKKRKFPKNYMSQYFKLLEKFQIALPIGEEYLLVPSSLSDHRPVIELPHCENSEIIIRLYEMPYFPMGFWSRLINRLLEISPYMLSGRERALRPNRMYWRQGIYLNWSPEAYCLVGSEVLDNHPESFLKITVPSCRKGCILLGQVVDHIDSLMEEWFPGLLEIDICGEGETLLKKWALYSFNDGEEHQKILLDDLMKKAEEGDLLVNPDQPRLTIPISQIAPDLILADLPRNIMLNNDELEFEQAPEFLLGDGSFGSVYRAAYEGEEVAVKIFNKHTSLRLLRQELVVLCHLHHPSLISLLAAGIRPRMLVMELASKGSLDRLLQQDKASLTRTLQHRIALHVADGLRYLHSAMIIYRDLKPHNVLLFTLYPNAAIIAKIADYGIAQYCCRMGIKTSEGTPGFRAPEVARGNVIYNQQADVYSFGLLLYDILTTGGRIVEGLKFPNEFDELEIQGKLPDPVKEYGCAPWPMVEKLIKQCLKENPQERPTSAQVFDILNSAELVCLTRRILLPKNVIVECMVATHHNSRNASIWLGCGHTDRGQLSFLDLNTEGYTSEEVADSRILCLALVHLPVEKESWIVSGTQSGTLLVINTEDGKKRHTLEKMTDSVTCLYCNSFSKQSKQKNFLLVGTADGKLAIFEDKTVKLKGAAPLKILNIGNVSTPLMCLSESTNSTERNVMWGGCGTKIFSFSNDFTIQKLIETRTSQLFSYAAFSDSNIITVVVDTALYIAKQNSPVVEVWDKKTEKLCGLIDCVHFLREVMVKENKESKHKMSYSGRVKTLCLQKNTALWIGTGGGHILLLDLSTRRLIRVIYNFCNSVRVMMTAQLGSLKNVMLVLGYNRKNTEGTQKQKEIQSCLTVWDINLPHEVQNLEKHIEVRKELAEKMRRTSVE
To the wells of an 384 well small volume plate (Greiner, Frickenhausen) are added (i) the compound under test in 5% DMSO/distilled water (5 μl), (ii) 5 μl of the kinase antibody mixture resulting in a final concentration 5 nM LRRK2 or their mutants, 2 nM EU-Anti-GST antibody in 1× kinase buffer A. The reaction was started with addition of (iii) 5 μl resulting in a final concentration of 10 nM tracer 236. The assay plate was incubated at RT for 1 h and fluorescence intensity readings were collected using a TECAN M1000 at two wavelengths of λex 340/λem 615 nm and λex 340/λem 665 nm with a delay time of 100 μs and an integration time of 200 μs after 60 minutes. The emission ratio was calculated by division of the acceptor/tracer emission ([…]) by the antibody/donor emission ([…]). The inhibitor concentration was plotted versus the emission ratio to determine the IC50 using XLFit 5.0 (IDBS, Guildford) to fit to a sigmoidal dose response curve with a variable slope.
A general note: In TR-FRET formats the signal depends on donor and acceptor labels being close together.
The IC50 is the midpoint of a concentration-inhibition curve. As to `COc1ccc(Nc2nc3ccc(SC)cc3c3cn[nH]c23)cc1OC` [Example 45, N-(3,4-dimethoxyphenyl)-8-(methylthio)-3H-pyrazolo[3,4-c]quinolin-4-amine], the IC50 was 100 to 1000 nM.
Then `Fc1cccc2c1nc(Nc1ccc(N3CCOCC3)cc1)c1[nH]ncc12` [Example 50, 6-fluoro-N-(4-morpholinophenyl)-3H-pyrazolo[3,4-c]quinolin-4-amine], with 100 to 1000 nM.
On to `CC(=O)N1CCN(c2ccc(Nc3nc4c(F)cccc4c4cn[nH]c34)cc2)CC1` [Example 53, 1-(4-(4-((6-fluoro-3H-pyrazolo[3,4-c]quinolin-4-yl)amino)phenyl)piperazin-1-yl)ethan-1-one], for which the IC50 is 100 to 1000 nM.
With `COc1cccc2nc(Nc3ccc(-c4ncco4)cc3)c3[nH]ncc3c12` [Example 58, 9-methoxy-N-(4-(oxazol-2-yl)phenyl)-3H-pyrazolo[3,4-c]quinolin-4-amine] the figure was 100 to 1000 nM; with `COc1cccc2nc(Nc3ccc(N4CCN(S(C)(=O)=O)CC4)cc3)c3[nH]ncc3c12` [Example 59, 9-methoxy-N-(4-(4-(methylsulfonyl)piperazin-1-yl)phenyl)-3H-pyrazolo[3,4-c]quinolin-4-amine], 10 to 100 nM.
`COc1cccc2nc(Nc3ccc(N4CCOCC4=O)cc3)c3[nH]ncc3c12` [Example 60, 4-(4-((9-methoxy-3H-pyrazolo[3,4-c]quinolin-4-yl)amino)phenyl)morpholin-3-one]: the IC50 fell in the range of 100 to 1000 nM.
As to `COc1cccc2nc(Nc3ccc(C(=O)N4CCCC4)cc3)c3[nH]ncc3c12` [Example 61, (4-((9-methoxy-3H-pyrazolo[3,4-c]quinolin-4-yl)amino)phenyl)(pyrrolidin-1-yl)methanone], the IC50 was in the range of 10 to 100 nM.
In the case of `COc1ccc(Nc2nc3ccc(S(C)(=O)=O)cc3c3cn[nH]c23)cc1OC` [Example 63, N-(3,4-dimethoxyphenyl)-8-(methylsulfonyl)-3H-pyrazolo[3,4-c]quinolin-4-amine], the IC50 fell in the range of 10 to 100 nM.
Then `COc1cccc2nc(Nc3ccc(N4CCCC4=O)cc3)c3[nH]ncc3c12` [Example 68, 1-(4-((9-methoxy-3H-pyrazolo[3,4-c]quinolin-4-yl)amino)phenyl)pyrrolidin-2-one], with 10 to 100 nM.
Then `COc1cccc2nc(Nc3ccc(C(=O)N4CCN(C)CC4)cc3)c3[nH]ncc3c12` [Example 69, (4-((9-methoxy-3H-pyrazolo[3,4-c]quinolin-4-yl)amino)phenyl)(4-methylpiperazin-1-yl)methanone], with 10 to 100 nM; and `COc1cccc2nc(Nc3ccc(N4CCOCC4)c(C#N)c3)c3[nH]ncc3c12` [Example 71, 5-((9-methoxy-3H-pyrazolo[3,4-c]quinolin-4-yl)amino)-2-morpholinobenzonitrile], with 10 to 100 nM.
With `COc1ccc(Nc2nc3ccc(C)cc3c3cn[nH]c23)cc1OC` [Example 72, N-(3,4-dimethoxyphenyl)-8-methyl-3H-pyrazolo[3,4-c]quinolin-4-amine] the figure was 100 to 1000 nM; with `COc1ccc2nc(Nc3ccc(-c4nnc(S)o4)cc3)c3n[nH]cc3c2c1` [Example 84, 5-(4-((8-methoxy-2H-pyrazolo[3,4-c]quinolin-4-yl)amino)phenyl)-1,3,4-oxadiazole-2-thiol], 10 to 100 nM.
With `COc1ccc2nc(Nc3ccc(N(C)C)nc3)c3n[nH]cc3c2c1` [Example 87, N5-(8-methoxy-2H-pyrazolo[3,4-c]quinolin-4-yl)-N2,N2-dimethylpyridine-2,5-diamine], the IC50 lay within 100 to 1000 nM.
For the molecule `Cc1cccc2nc(Nc3cccc(S(C)(=O)=O)c3)c3[nH]ncc3c12` [Example 88, 9-methyl-N-(3-(methylsulfonyl)phenyl)-3H-pyrazolo[3,4-c]quinolin-4-amine], the IC50 fell in the range of 100 to 1000 nM.
With `Cc1cccc2nc(Nc3ccc(N4CCOCC4)cc3)c3[nH]ncc3c12` [Example 89, 9-methyl-N-(4-morpholinophenyl)-3H-pyrazolo[3,4-c]quinolin-4-amine] the figure was 100 to 1000 nM.
As for `COc1ccc2nc(Nc3ccc(N4CCOCC4)c(S(C)(=O)=O)c3)c3n[nH]cc3c2c1` [Example 90, 8-methoxy-N-(3-(methylsulfonyl)-4-morpholinophenyl)-2H-pyrazolo[3,4-c]quinolin-4-amine], the IC50 lay within 100 to 1000 nM.
For `COc1ccc2nc(Nc3ccc(N4CCN(C(C)=O)CC4)nc3)c3n[nH]cc3c2c1` [Example 91, 1-(4-(5-((8-methoxy-2H-pyrazolo[3,4-c]quinolin-4-yl)amino)pyridin-2-yl)piperazin-1-yl)ethan-1-one], the IC50 lay within 100 to 1000 nM.
As to `CS(=O)(=O)c1cccc2nc(Nc3ccc(N4CCOCC4)cc3)c3[nH]ncc3c12` [Example 92, 9-(methylsulfonyl)-N-(4-morpholinophenyl)-3H-pyrazolo[3,4-c]quinolin-4-amine], the IC50 is less than 10 nM.
Then `CC(=O)N1CCN(c2ccc(Nc3nc4cccc(S(C)(=O)=O)c4c4cn[nH]c34)cc2)CC1` [Example 93, 1-(4-(4-((9-(methylsulfonyl)-3H-pyrazolo[3,4-c]quinolin-4-yl)amino)phenyl)piperazin-1-yl)ethan-1-one], with 10 to 100 nM; and `CS(=O)(=O)c1cccc2nc(Nc3ccc(C(=O)N4CCOCC4)cc3)c3[nH]ncc3c12` [Example 94, (4-((9-(methylsulfonyl)-3H-pyrazolo[3,4-c]quinolin-4-yl)amino)phenyl)(morpholino)methanone], with 100 to 1000 nM; and `CC(C)(C)N1CCN(c2ccc(Nc3nc4cccc(S(C)(=O)=O)c4c4cn[nH]c34)cc2)CC1` [Example 95, N-(4-(4-(tert-butyl)piperazin-1-yl)phenyl)-9-(methylsulfonyl)-3H-pyrazolo[3,4-c]quinolin-4-amine], with 100 to 1000 nM.
For `COc1ccc2nc(Nc3ccc(N4CCC(N5CCN(C)CC5)CC4)nc3)c3n[nH]cc3c2c1` [Example 96, 8-methoxy-N-(6-(4-(4-methylpiperazin-1-yl)piperidin-1-yl)pyridin-3-yl)-2H-pyrazolo[3,4-c]quinolin-4-amine], the IC50 lay within 100 to 1000 nM.
With `CN1CCN(C2CCN(c3ccc(Nc4nc5cccc(S(C)(=O)=O)c5c5cn[nH]c45)cc3)CC2)CC1` [Example 97, N-(4-(4-(4-methylpiperazin-1-yl)piperidin-1-yl)phenyl)-9-(methylsulfonyl)-3H-pyrazolo[3,4-c]quinolin-4-amine] the figure was 100 to 1000 nM; with `COc1ccc(Nc2nc3cccc(S(C)(=O)=O)c3c3cn[nH]c23)cc1OC` [Example 99, N-(3,4-dimethoxyphenyl)-9-(methylsulfonyl)-3H-pyrazolo[3,4-c]quinolin-4-amine], 100 to 1000 nM.
Then `CN1CCN(c2ccc(Nc3nc4cccc(S(C)(=O)=O)c4c4cn[nH]c34)cn2)CC1` [Example 100, N-(6-(4-methylpiperazin-1-yl)pyridin-3-yl)-9-(methylsulfonyl)-3H-pyrazolo[3,4-c]quinolin-4-amine], with 100 to 1000 nM; and `COc1ccc2nc(Nc3cnn(C)c3C)c3n[nH]cc3c2c1` [Example 104, N-(1,5-dimethyl-1H-pyrazol-4-yl)-8-methoxy-2H-pyrazolo[3,4-c]quinolin-4-amine], with 100 to 1000 nM; and `COc1ccc2nc(Nc3cn(C)nc3C)c3n[nH]cc3c2c1` [Example 105, N-(1,3-dimethyl-1H-pyrazol-4-yl)-8-methoxy-2H-pyrazolo[3,4-c]quinolin-4-amine], with 100 to 1000 nM.
Then `CS(=O)(=O)c1cccc2nc(Nc3ccc(NCCO)cc3)c3[nH]ncc3c12` [Example 106, 2-((4-((9-(methylsulfonyl)-3H-pyrazolo[3,4-c]quinolin-4-yl)amino)phenyl)amino)ethan-1-ol], with 100 to 1000 nM; and `CS(=O)(=O)c1cccc(Nc2nc3cccc(S(C)(=O)=O)c3c3cn[nH]c23)c1` [Example 107, 9-(methylsulfonyl)-N-(3-(methylsulfonyl)phenyl)-3H-pyrazolo[3,4-c]quinolin-4-amine], with 100 to 1000 nM; and `COc1ccc2nc(Nc3cnn(C4CCN(C)CC4)c3)c3n[nH]cc3c2c1` [Example 111, 8-methoxy-N-(1-(1-methylpiperidin-4-yl)-1H-pyrazol-4-yl)-2H-pyrazolo[3,4-c]quinolin-4-amine], with 10 to 100 nM.
As for `COc1ccc2nc(Nc3cnn(C4CCN(C(C)=O)CC4)c3)c3n[nH]cc3c2c1` [Example 112, 1-(4-(4-((8-methoxy-2H-pyrazolo[3,4-c]quinolin-4-yl)amino)-1H-pyrazol-1-yl)piperidin-1-yl)ethan-1-one], the IC50 fell in the range of 10 to 100 nM.
Then `COCCn1cc(Nc2nc3ccc(S(C)(=O)=O)cc3c3cn[nH]c23)cn1` [Example 113, N-(1-(2-methoxyethyl)-1H-pyrazol-4-yl)-8-(methylsulfonyl)-3H-pyrazolo[3,4-c]quinolin-4-amine], with 10 to 100 nM; and `COc1ccc2nc(Nc3cnn(C)n3)c3n[nH]cc3c2c1` [Example 122, 8-methoxy-N-(2-methyl-2H-1,2,3-triazol-4-yl)-2H-pyrazolo[3,4-c]quinolin-4-amine], with 100 to 1000 nM.
